This data set can be described thus: Oral bioavailability after oral dosing at 5 mg kg-1. The data set is classed as ADME, organism-based. The conditions noted are these: mouse, in vivo.

For orientation: bioavailability means the share of a dose that reaches the circulation, judged against a reference dose that is usually intravenous. Higher therefore signals much systemic uptake. `O=C(NO)c1ccc(-c2ccn(CCNCc3ccc4c(c3)OCO4)n2)s1` yielded a bioavailability of 10%.

The record behind these values is ChEMBL document CHEMBL1137595, “Identification and optimisation of a series of substituted 5-(1H-pyrazol-3-yl)-thiophene-2-hydroxamic acids as potent histone deacetylase (HDAC) inhibitors” (Bioorg Med Chem Lett, 2007).
